Reference: patent US20240165226A1, “COMBINATION TREATMENT OF CD38-EXPRESSING TUMORS” (GENMAB A/S, priority 2006, published 2024)

Tested on: luciferase-transfected Daudi cells
Experiment: Annexin-V apoptosis assay
Assay type: cell-based
Conditions: 5 μg/ml
Experimental: Apoptosis assay was carried out according to the manufacturer's instructions (Annexin-V Apoptosis kit, BD Biosciences, Alphen a.d. Rijn, Netherlands). In short, CD38 mAbs were added to 2.5×10^5 cells (luciferase-transfected Daudi cells, in 0.5 ml RPMI^++ in a 24-wells plate), in a concentration of 5 μg/ml -003 or -005 or an anti-CD20 antibodies alone or in the presence of cross-blocking rb-anti-hIgG (50 μg/ml).
After incubation (37° C., 5% CO2, 20 hr), cells were harvested carefully, and washed with Binding Buffer (1200 rpm, 4° C., 5 min, BD Biosciences). Pellet was resuspended in 100 μl Binding Buffer. Then, 5 μl Annexin-V-FITC (BD Biosciences) and 10 μl PI (BD Biosciences) was added to the suspension and incubated for 15 minutes at RT. 400 μl Binding Buffer was added and the samples were measured (PI readout in FL2). For analysis of apoptotic cells, all Annexin-V-positive cells were counted by flow cytometry using a FACScalibur flow cytometer with CellQuest pro software (BD Biosciences). At least 10,000 events were collected for analysis. This population includes both PI-positive as well as PI-negative cells.

-005: human monoclonal IgG1 anti-CD38 antibody, VL region SEQ ID No:12 and VH region SEQ ID No:17
induction of apoptosis (after cross-linking with rb-anti-hIgG (50 μg/ml)): less able to induce apoptosis
induction of apoptosis (without cross-linking): do not induce apoptosis
